Test system: ICR mice
Test: Test for evaluation of expectorant activity (phenol red in trachea)
Assay type: in vivo
Conditions: 200 mg/kg, oral, male ICR mice
Description: In order to evaluate the expectorant activities of the water and ethanol extracts of Justicia procumbens L., prepared in Preparation Examples 1-1 to 1-2, a test for evaluation of expectorant activity was performed using male ICR mice (weighed 30 to 33 g; Orientbio). Specifically, the extracts and the comparative drug ambroxol (200 mg/kg, Boehringer Ingelheim) were administered orally to the respective groups of mice that fasted the previous day. […] The isolated trachea was freeze-stored in 1 ml of physiological saline for 24 hours. Next, the trachea was sonicated, and 1N NaOH was added to the supernatant (0.1 ml of 1N NaOH per ml of the supernatant). Then, the absorbance at 546 nm was measured and the expectorant activity was measured with the concentration of phenol red.

Nc1c(Br)cc(Br)cc1CN[C@H]1CC[C@H](O)CC1 [Ambroxol, ambroxol]
Expectoration (%, n = 4, Mean ± SE): 11.4 ± 12.89%

Reference: US10869904B2, “Pharmaceutical composition for preventing or treating respiratory disease comprising extract of Justicia procumbens L” (DONG WHA PHARM. CO., LTD., priority 2016, dated 2020)
